# Biological target: HPK1 (Homo sapiens (Human), UniProt Q92918)
# Assay: HPK1 biochemical enzyme assay (microfluidic mobility shift assay)
# Details: 1.5 nM HPK1, ATP 1 mM final, 60 min at RT, Caliper EZ Reader; read-out: HPK1 1000UMATP caliper IC50
# Procedure: HPK1 biochemical enzyme assay: HPK1 enzyme inhibition was measured using a microfluidic mobility shift assay. […] Test compounds were titrated in ten point curves (top final assay concentration […]), and preincubated with enzyme/substrate mix for 30 min prior to initiation of the reaction by addition of ATP (1 mM final concentration) and substrate (1 μM final concentration; Carna Biosciences) diluted in assay buffer supplemented by MgCl2 (final assay concentration of 5 mM). Following 60 min incubation at RT, the reaction was terminated by addition of 60 µl/well termination buffer (Carna Biosciences) and signal determination using a Caliper EZ Reader (Perkin Elmer, UK).
# The compound numbers correspond to the compound numbers in Table 1.
# Chain of HPK1 (Q92918 whole entry): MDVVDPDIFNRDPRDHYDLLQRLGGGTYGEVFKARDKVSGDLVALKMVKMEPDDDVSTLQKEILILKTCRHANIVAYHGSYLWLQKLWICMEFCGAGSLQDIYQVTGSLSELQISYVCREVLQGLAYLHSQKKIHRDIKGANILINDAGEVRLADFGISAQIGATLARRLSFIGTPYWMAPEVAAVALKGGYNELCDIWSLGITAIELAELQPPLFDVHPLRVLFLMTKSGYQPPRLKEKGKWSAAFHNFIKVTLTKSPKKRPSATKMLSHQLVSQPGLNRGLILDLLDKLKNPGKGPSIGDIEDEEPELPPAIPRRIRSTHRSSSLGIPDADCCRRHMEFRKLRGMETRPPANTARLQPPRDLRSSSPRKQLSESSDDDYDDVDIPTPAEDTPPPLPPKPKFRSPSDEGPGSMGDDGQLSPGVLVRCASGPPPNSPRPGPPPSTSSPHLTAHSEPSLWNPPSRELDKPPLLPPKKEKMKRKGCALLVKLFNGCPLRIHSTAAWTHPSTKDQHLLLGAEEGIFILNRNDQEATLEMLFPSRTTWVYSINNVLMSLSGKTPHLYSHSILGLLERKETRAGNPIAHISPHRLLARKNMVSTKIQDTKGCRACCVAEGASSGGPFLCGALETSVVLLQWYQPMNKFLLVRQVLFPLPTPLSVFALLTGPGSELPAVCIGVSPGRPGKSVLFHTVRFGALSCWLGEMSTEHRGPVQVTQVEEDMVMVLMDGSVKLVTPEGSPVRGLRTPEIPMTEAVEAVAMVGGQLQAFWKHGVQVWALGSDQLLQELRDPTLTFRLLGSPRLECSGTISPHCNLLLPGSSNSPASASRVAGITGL
row,Substance,IC50 [nM]
1,"4-(8-fluoro-7- methyl-imidazo[1,2- a]pyridin-3- yl)-7-[[5- (morpholino- methyl)-2- pyridyl]amino] isoindolin-1-one [I-468]",< 100
2,"4-[7-(hydroxymeth- yl)imidazo[1,2- a]pyridin-3- yl]-7-[(5- morpholino-2- pyridyl)amino] isoindolin-1-one [I-196]",< 100

# Source: patent US11078201B2, “Substituted isoindolin-1-ones and 2,3-dihydro-1H-pyrrol[3,4-c]pyridin-1-ones as HPK1 antagonists” (Nimbus Saturn, Inc., priority 2019, dated 2021)
